For data set [1], the system named is tyrosine phosphorylation in primary macrophages. In words: Tyrosine phosphorylation assay in primary macrophages (Western blot). It counts as cell-based, mouse. How it is done: (§1) Tyrosine Phosphorylation Assay: Tyrosine phosphorylation in macrophages or bone marrow-derived cells (BMDCs) of mice was assayed. Mouse primary macrophages were isolated from the peritoneum of 7-8 week old C57BL/6 female mice following thioglycollate stimulation. […] Mouse primary bone marrow-derived cells were isolated by flushing bone marrow out of the femur and tibia of female SJL mice using cold RPMI-1640. […] Cells were then washed, resuspended in the same buffer and depleted of B and T cells on a Midi-Macs separation unit through a LD or LS column (Miltenyi Biotech). […] The medium was replaced every other day. […] Proteins with phosphorylated tyrosine were then observed by Western blot, using a monoclonal anti-phosphotyrosine antibody. Western blotting for ERK1/2 or α-tubulin was performed as a control for protein loading.
For orientation: Immunoblotting shows a protein as a band on a membrane.

In data set [2] the test system is mouse peritoneal macrophages. In words: In vitro toxicity assay. It counts as cell-based. The conditions noted are these: for LD50: crystal violet cell number. As to the method: Thioglycollate-elicited mouse peritoneal macrophages were washed, counted and seeded (2×10^5 to 3×10^5 cells per well in 24-well plates) in triplicate wells in medium containing RPMI-1640, L-glutamine, 10% FBS and antibiotics (penicillin/streptomycin). After a recovery period of 24 hours, the tested compound (or controls) was added to the cell medium at doses of 2, 10, 20, 50, 100 or 150 μg/ml, keeping the added volume equal in all treatments by complementing the volume with solvent.
Following addition of the compounds, the cells were incubated for an additional 24 hours, after which the cells were washed, fixed with a solution of 10% methanol/10% acetic acid and stained with crystal violet (0.4% in 20% ethanol). Cell numbers were measured by determining optical density at 595 nm. Cells incubated with vehicle (PBS with 1% ethanol) were used as a control, to which cell numbers in treated samples were normalized.
Data are presented as mean±standard deviation. Statistical significance relative to vehicle-treated cells was calculated using a student's t-test, with p-values of less than 0.05 being considered as indicating statistical significance.

The test system of data set [3] is tyrosine phosphorylation in bone marrow-derived cells. In words: Tyrosine phosphorylation assay in bone marrow-derived cells (Western blot). It counts as cell-based, mouse. To be noted: 20 μg/ml (33 μM). As to the method: as §1
A further data set relates to IL12/23 p40. In words: In vitro IL12/23p40 production assay. It counts as cell-based, mouse. The conditions noted are these: bone marrow-derived cells. As to the method: In Vitro IL12/23p40 Production Assay:
Bone marrow derived cells (BMDCs) were obtained from the femur and tibia of female C57BL mice, cultured, and seeded at a concentration of 10^6 cells/ml 5-6 days post-culturing, as described hereinabove for the tyrosine phosphorylation assay.
The tested compound was then added to the cells for 1 hour at a concentration of 1, 2.5, 5, 10 or 20 μg/ml. The cells were activated for IL12/23p40 production by incubation for 24 hours with 10 μg/ml peptidoglycan (PGN). Cytokine production from the supernatant was measured by ELISA. Activated cells without the tested compound were used as the control.

Where [4] appears, read: peritoneal macrophages, 24 hours, only one of two experiments.
The mark [5] stands for this setting: peritoneal macrophages, 24 hours, up to 150 μg/ml.
Where [6] appears, read: compound 1, 2.5, 5, 10 or 20 μg/ml for 1 hour, then 10 μg/ml peptidoglycan 24 hours, ELISA.
[7] abbreviates: peritoneal macrophages, 24 hours.

Values joined by “and” are separate entries in the source; they are usually repeats but may differ in a detail not shown here. Equal entries are not always repeated. Where two headings read alike, the source gives them in different places.

For “1-(2-octyl)dodecyl-2-(4-carboxy)butyl-glycero-3-phosphocholine [VB-221]”, the phosphotyrosine levels entry in data set [1] (5 ng/ml (8 μM)), in data set [1] (10 ng/ml (16 μM)) and in data set [1] (20 ng/ml) was “induction of tyrosine phosphorylation” each time.

With `CCCCCCCCCCCCCCCCOCC(COP(=O)(O)OCCN)OCCCC(=O)O` (stereo not shown) [CI-206, 1-hexadecyl-2-(3-carboxy)propyl-glycero-3-phosphoethanolamine], in data set [1] (20 μg/ml, 10 minutes), the phosphotyrosine levels result is “causes reduction in phosphotyrosine levels”. In data set [2] (mouse, 24 h), the “dose at which (significant) toxicity was detected” value is not below 50 µg/mL.

Take `CCCCCCCCCCCCCCCCOCC(COP(=O)([O-])OCC[N+](C)(C)C)OCCCCC(=O)OC` (stereo not shown) [CI-208, 1-hexadecyl-2-(4-methylcarboxy)butyl-glycero-3-phosphocholine]: the phosphotyrosine levels result in data set [1] (20 ng/ml) is reported as “causes a reduction in phosphotyrosine levels, which is stronger than the reduction caused by treatment with 20 ng/ml of the CI-201 control”. In addition, the “dose at which toxicity was detected in only one experiment” value (from here on “dose at which toxicity was detected”) in data set [2] (mouse, 24 h) was 20 µg/mL.

Take `C[N+](C)(C)CCOP(=O)([O-])OCC(COCCCCCCCCCCCCCCCC(=O)O)OCCCCC(=O)O` (stereo not shown) [CI-213, 1-(15′-carboxy)pentadecyl-2-(4-carboxy)butyl-glycero-3-phosphocholine]: the “dose at which a significant decrease in cell number was detected in only one experiment” value in data set [2] (peritoneal macrophages, 24 hours, only one experiment) was determined as 163.5 µM. For the same molecule, the “dose at which toxicity was detected” value in data set [2] (setting [4]) turned out to be 100 µg/mL. For the same molecule, the “toxicity within the range of tested doses” value (from here on “toxicity within the range”) in data set [2] (setting [5]) is given as “did not clearly exhibit significant toxicity within the range of tested doses”.

`CCCCCCCCCCCCCCCCOCC(COP(=O)([O-])OCC[N+](C)(C)C)OCCCCCCC(=O)O` (racemic) [racemic CI-203, 1-hexadecyl-2-(6-carboxy)hexanyl-glycero-3-phosphocholine]: the phosphotyrosine levels entry in data set [3] is on record as “caused a reduction in phosphotyrosine levels”.

In the case of `CCCCCCCCCCCCCCCCOCC(COP(=O)([O-])OCC[N+](C)(C)C)OCCCC(=O)O` (stereo not shown) [CI-205, 1-hexadecyl-2-(3-carboxy)propyl-glycero-3-phosphocholine], the phosphotyrosine levels entry in data set [1] (20 μg/ml, 10 minutes) is reported as “causes reduction in phosphotyrosine levels”. In addition, the “dose at which (significant) toxicity was detected” value in data set [2] (peritoneal macrophages, 24 hours, doses 2-150 μg/ml) was found to be 100 µg/mL. Besides, the “dose at which toxicity was detected” value in data set [2] (setting [4]) was in the range of 20 to 50 µg/mL.

Take `CCCCCCCCCCCCCCCCCCCCOCC(COP(=O)(O)OCCN)OCCCCC(=O)O` (stereo not shown) [CI-220, 1-eicosanyl-2-(4-carboxy)butyl-glycero-3-phosphoethanolamine]: the phosphotyrosine levels entry in data set [1] (10 μg/ml, 10 minutes) is recorded as “little effect, if any”; in data set [1] (20 μg/ml, 10 minutes), “caused a reduction in phosphotyrosine levels”.

As to `NCCOP(=O)(O)OCC(COCCCCCCCCCCCCCCCC(=O)O)OCCCCC(=O)O` (stereo not shown) [CI-214, 1-(15′-carboxy)pentadecyl-2-(4-carboxy)butyl-glycero-3-phosphoethanolamine], in data set [2], the “toxicity within the range” value is “did not clearly exhibit significant toxicity within the range of tested doses”. Moreover, in data set [2] (mouse, 24 h), the “dose at which a significant decrease in cell number was detected in only one experiment” value came out at 175.5 µM and the “dose at which toxicity was detected” value was 100 µg/mL.

As for `CCCCCCCCCCCCOCC(COP(=O)([O-])OCC[N+](C)(C)C)OCCCCC(=O)O` (stereo not shown) [CI-209, 1-dodecyl-2-(4-carboxy)butyl-glycero-3-phosphocholine], in data set [1] (20 μg/ml, 10 minutes), the phosphotyrosine levels entry was “induced an increase in phosphotyrosine levels”. Further, the “production of IL12/23 p40” value in the data set on IL12/23 p40 (setting [6]) is reported as “inhibited production of IL12/23 p40 by bone marrow-derived cells in a dose-dependent manner”. In data set [2] (setting [7]), the LD50 result is “above 150 μg/ml and > 286 μM”. Further, in data set [2] (setting [5]), the “toxicity within the range” value is given as “toxicity of CI-209 was not observed at any of the tested doses”.

On to `CCCCCCCCCCCCCCCCOCC(COP(=O)(O)O)OCCCCC(=O)O` (stereo not shown) [CI-201-PA, 1-hexadecyl-2-(4-carboxy)butyl-glycero-3-phosphate], for which, in data set [2] (mouse, 24 h), the “dose at which (significant) toxicity was detected” value is not below 20 µg/mL and the “dose at which toxicity was detected” value stood at 10 µg/mL. Further, the LD50 result in data set [2] (setting [7]) is recorded as “approximately 50 μg/ml”.

Regarding “1-(2-octyl)dodecyl-2-(4-carboxy)butyl-glycero-3-phosphoethanolamine [VB-222]”, the phosphotyrosine levels result in data set [1] (10 μg/ml, 10 minutes) is “induction of tyrosine phosphorylation”; in data set [1] (20 μg/ml, 10 minutes), “induction of tyrosine phosphorylation”.

As for `CCCCCCCCCCCCCCCCOCC(COP(=O)([O-])OCC[N+](C)(C)C)OCCCCC(OCC)OCC` (stereo not shown) [diEtAc, 1-hexadecyl-2-(5′,5′-diethoxypentyl)-glycero-3-phosphocholine], in data set [2] (mouse, 24 h), the “dose at which (significant) toxicity was detected” value was not below 20 µg/mL and the “dose at which toxicity was detected” value turned out to be 10 µg/mL.

`CCCCCCCCCCCCCCCCCCOCC(COP(=O)([O-])OCC[N+](C)(C)C)OCCCCC(=O)O` (stereo not shown) [CI-215, 1-octadecyl-2-(4-carboxy)butyl-glycero-3-phosphocholine]: the phosphotyrosine levels result in data set [1] (10 μg/ml, 10 minutes) is recorded as “induced an increase in phosphotyrosine levels”; in data set [1] (20 μg/ml, 10 minutes) it was “caused a decrease in phosphotyrosine levels”.

`CCCCCCCCCCCCCCCCCCCCOCC(COP(=O)([O-])OCC[N+](C)(C)C)OCCCCC(=O)O` (stereo not shown) [CI-219, 1-eicosanyl-2-(4-carboxy)butyl-glycero-3-phosphocholine]: the phosphotyrosine levels result in data set [1] (10 μg/ml, 10 minutes) is on record as “little effect, if any”; in data set [1] (20 μg/ml, 10 minutes), “caused a reduction in phosphotyrosine levels”.

For `CCCCCCCCCCCCCCCCSCC(COP(=O)(O)OCCN)OCCCCC(=O)O` (stereo not shown) [1-S-CI-202, 1-S-hexadecyl-2-(4-carboxy)butyl-glycero-3-phosphoethanolamine], the phosphotyrosine levels result in data set [1] (10 μg/ml, 10 minutes) was “caused an increase in phosphotyrosine levels”; in data set [1] (20 μg/ml, 10 minutes) it was “caused a reduction in phosphotyrosine levels”.

`CCCCCCCCCCCCCCCCOCC(COP(=O)(O)OCCNC(=O)CCCC(=O)O)OCCCCC(=O)O` (stereo not shown) [CI-210, 1-hexadecyl-2-(4-carboxy)butyl-glycero-3-phosphoethanolamine-N-glutaric acid]: in data set [1] (20 μg/ml, 10 minutes), the phosphotyrosine levels entry is on record as “induced an increase in phosphotyrosine levels”. The “production of IL12/23 p40” value with IL12/23 p40 (setting [6]) was “inhibited production of IL12/23 p40 by bone marrow-derived cells in a dose-dependent manner”. In addition, in data set [2] (mouse, 24 h), the “dose at which (significant) toxicity was detected” value is not below 100 µg/mL and the “dose at which significant toxicity was observed” value is not below 156.6 µM. The LD50 result in data set [2] (setting [7]) was “approximately 150 μg/ml and ~235 μM”.

As for `CCCCCCCCCCCCCCCCCCOCC(COP(=O)(O)OCCN)OCCCCC(=O)O` (stereo not shown) [CI-216, 1-octadecyl-2-(4-carboxy)butyl-glycero-3-phosphoethanolamine], the phosphotyrosine levels entry in data set [1] (10 μg/ml, 10 minutes) is on record as “induction of tyrosine phosphorylation”; in data set [1] (20 μg/ml, 10 minutes) it was “reduction in phosphotyrosine levels”. Further, in the data set on IL12/23 p40 (20 μg/ml), the “production of IL12/23 p40” value is reported as “inhibited production of IL12/23 p40 by bone marrow-derived cells”.

As for `CCCCCCCCCCCCCCCCOCC(COP(=O)(O)OCC(N)C(=O)O)OCCCCC(=O)O` (stereo not shown) [VB-223, 1-hexadecyl-2-(4-carboxy)butyl-glycero-3-phosphoserine], the phosphotyrosine levels result in data set [1] (1 μg/ml, 10 minutes) is “perhaps also”; in data set [1] (5 μg/ml, 10 minutes), “induction of tyrosine phosphorylation”; in data set [1] (10 μg/ml, 10 minutes) it was “induction of tyrosine phosphorylation”; in data set [1] (20 μg/ml, 10 minutes), “induction of tyrosine phosphorylation”.

Regarding `CCCCCCCCCCCCCCCCSCC(COP(=O)([O-])OCC[N+](C)(C)C)OCCCCC(=O)O` (stereo not shown) [1-S-CI-201, 1-S-hexadecyl-2-(4-carboxy)butyl-glycero-3-phosphocholine], the phosphotyrosine levels result is “little effect, if any” in data set [1] (10 μg/ml, 10 minutes) and “caused a reduction in phosphotyrosine levels” in data set [1] (20 μg/ml, 10 minutes).

On to `CCCCCCCCCCCCCCCCOCC(COP(=O)([O-])OCC[N+](C)(C)C)OCCC(=O)O` (stereo not shown) [CI-217, 1-Hexadecyl-2-(2-carboxy)ethyl-glycero-3-phosphocholine], for which the phosphotyrosine levels entry in data set [1] (10 μg/ml, 10 minutes) was “little effect”; in data set [1] (20 μg/ml, 10 minutes), “caused a reduction in phosphotyrosine levels”.

(Values after US9206206B2, “Oxidized lipid compounds and uses thereof” (Vascular Biogenics Ltd., priority 2008, dated 2015).)
